Test results from patent publication US20100196194A1, “METHOD FOR S[…] WITH OZONE” (BRADFORD I[…], priority 2006, published 2010).

Legend:
bacterial spores = experiment: relation between ozone concentration and time needed for sterilization of bacterial spore samples; format: cell-based; settings: ozone concentration 2-3 mgr/l (based on 1 atm), moisture content 60-80%
Description: Experimentally, the relation has been investigated between ozone concentration and the time needed for sterilization. A typical measurement procedure is as follows. A sample with bacterial spores is prepared, and exposed in the chamber 10 to an ozone-containing atmosphere with a specific temperature and air humidity, during a specific treatment time, after which the sample is removed from the chamber 10. […] Thus, a series of samples is treated, each time with different treatment times. To obtain a greater certainty, the measurements are repeated, which means that at a certain treatment time always multiple measurements are done with different samples.
The treated samples are subsequently placed in a conditioned breeding chamber, and it is monitored at which samples bacterial growth is and at which samples bacterial is not taking place. […]
The results obtained from the culture were correlated to the treatment times. For each value of the ozone concentration, it was assessed what the LONGEST treatment time was where bacterial growth was still observed: this treatment time was apparently insufficient to guarantee 100% elimination of the spores; this measurement point and all measurement points with shorter treatment times, in FIG. 2, are indicated with open circles. […]

[1] = test system: spores of the bacterium Bacillus Atrophaeus; experiment: sterilization of standard spore strips (10E6), growth check after 48 hours at 37° C. in tryptone soya broth; format: cell-based
From the text: The FIGS. 3A-3B illustrate another experiment, executed on spores of the bacterium Bacillus Atrophaeus (previously known as Bacillus subtilis var. niger); from all bacterial spores, the spores of this bacterium Bacillus Astrophaeus are the most resistant to ozone. Use was made of standard spore strips with the qualification 10E6; these are strips on which in the order of 10^6 bacterial spores have been deposited. The used strips were obtained from the company Etigam BV in Apeldoorn, Netherlands. According to statement of the supplier, these spores were obtained from the American Type Culture Collection (ATCC) 9372.
In this experiment, the spore strips were submitted to a sterilization process, wherein the ozone concentration, the degree of humidity and the treatment time were measured. The spore strips were removed from the sterilization chamber, and than were stored for 48 hours at a temperature of 37° C. in a test tube filled with tryptone soya broth (“tryptone Soya Broth”, TSB). TSB is a standard nutrition medium, obtainable at Tritium-Microbiologie BV in Veldhoven, Netherlands, type indication T406.24.0005.
Each time, four spore strips were treated simultaneously. After the storage time of 48 hours, for each spore strip it was investigated whether bacterial spores had grown. If visually no bacterial growth could be detected, it was assumed that all spores of the relevant spore strip had been killed. If visually bacterial growth could be detected, the relevant spore strip was qualified as “insufficiently sterilized”. The results are presented in the FIGS. 3A and 3B, wherein FIG. 3A relates to measurements at an ambient temperature of 20° C. during the sterilization process and FIG. 3B relates to measurements at an ambient temperature of 30° C. during the sterilization process. The horizontal axis in the figures represents the measured degree of humidity in percentages, the vertical axis represents the time integral of the ozone concentration, indicated as ∫[O3], in units of gr·s/l. In the area 131, 100% of the bacterial spores of all four the test strips were always killed. In the area 132, each time one spore strip was insufficiently sterilized. In the area 133, each time two spore strips were insufficiently sterilized. In the area 134, each time three or four spore strips were insufficiently sterilized. The rectangular areas that are cut away from the top left of the graphs are areas belonging to test strips that were not analyzed.

O=[O+][O-] [ozone]
sterilization result in experimental set-up (bacterial spores): good results
degree of humidity giving optimal sterilization result ([1]; FIG. 3A, ambient temperature 20° C.): approximately 80 % RH
effect of increasing the ambient temperature on sterilization ([1]; ambient temperature increased to 30° C. (versus 20° C.)): favourable effect
effect of increasing the degree of humidity on sterilization ([1]; degree of humidity increased to 95%): did not give clear improvement
sterilization at low degree of humidity ([1]; less than 50% RH): no good sterilization proved to be possible
ozone performance equivalent OPEQ (minimum time integral of ozone concentration leading to 100% sterilization) ([1]; worst case 60% RH and 20° C., valid at all humidity above 60% RH, at 20° C. and 30° C.): 15 gr·s/l
